Measured values reported in patent US20230134377A1, “INSECT-REPELLENT PERSONAL-CARE COMPOSITION” (priority 2021, published 2023).

Experiments:
[1] = crystallization / phase stability of fatty acids in the MCT composition; format: physicochemical
Protocol: The first issue was one of phase stability, i.e., with higher levels of C12 fatty acid, the fatty acid precipitates out of the MCT matrix when essential oils are also present, leaving just the essential oils and the MCT carrier in solution.
The MCT as a dilutant at high enough percentage by weight in the composition prevents undesirable crystallization down to about 45-50° F. (with only C10 fatty acid, the composition is stable to about 12% concentration in the formula and with only C12 fatty acid, the composition is stable up to about 7%). It was also determined that the combination of either C8 or C10 with the C12 in a ratio of 1:4 or greater results in no undesirable crystallization.
A 100% substitution of the MCT with these yielded a clear product at cooler temperatures. […] Other co-solvents recognized by the present disclosure as useful in preventing crystallization of fatty acids from the composition include alcohols such as methanol, ethanol, propanol, and isopropanol. However, as indicated earlier, these alcohols are drying to the skin and should be avoided, if at all possible, in skin-care type repellent formulas.

[2] = test system: mosquito, biting fly, tick; assay: repellent behaviour of C12 fatty acid on treated skin; format: in vivo; conditions: insect will land but not bite on treated skin
[3] = 100% substitution of the MCT, cooler temperatures

| effect of co-solvent on crystallization when added to the composition [1] | appearance after substitution of the MCT by the co-solvent [1, 3] | concentration in the formula up to which the composition is stable (no crystallization) ([1]; only this fatty acid, in MCT as dilutant) | solubility in MCTs ([1]; without essential oils) | SMILES | appearance after substitution of the MCT by the co-solvent ([1]; 25% substitution level) | type of repellency [2] |
| --- | --- | --- | --- | --- | --- | --- |
| limit crystallization | clear product | – | – | CCCCCCCCCCCCCC(=O)OC(C)C [isopropyl myristate] | significant benefit but not to the total clarity | – |
| limit crystallization | clear product | – | – | CCCCCCCCCC(=O)OC [methyl decanoate] | significant benefit but not to the total clarity | – |
| – | – | about 7% | completely soluble | CCCCCCCCCCCC(=O)O [C12 fatty acid, lauric acid] | – | close-proximity or contact repellent |
